Source: patent US20160153998A1, “BIOMARKERS FOR PREDICTING THE SENSITIVITY OF CELLS TO IMMUNOMODULATORY COMPOUNDS DURING TREATMENT OF NON-HODGKIN'S LYMPHOMA” (Celgene Corporation, priority 2007, published 2016)

How the values were obtained:
Assay type in all cases: cell-based
Rec-1 cells [1] = assay: Real-time PCR gene expression in Rec-1 cells; settings: 1, 10 or 100 μM, 24 or 48 hours, alone or with dexamethasone 10 nM
Procedure: (§1) After the cell treatment, total RNA was purified. Real-time PCR was performed with 100 ng of total RNA, using an Applied Biosystems 7500 instrument (Applied Biosystems, Foster City, Calif.) using TaqMan Sequence Detection chemistry which uses a fluorogenic probe (FAM) to enable the detection of a specific PCR product as it accumulates during PCR. Samples were prepared in triplicate in 50 μl reaction volumes. The 50 μl reactions consisted of 25 μl 2× TaqMan PCR master mix, 2.5 μl of 20× gene expression assay, 10 μl of RNA ([…]) and 12.5 μl water. Glyceraldehyde-3-phosphate dehydrogenase (GAPDH) was used as the endogenous control to ensure equal RNA amounts in each sample.
(§2) TaqMan® Gene Expression Assays were pre-formulated gene expression assays for rapid, reliable detection and quantification of human, mouse and rat mRNA transcripts. The PCR program used was: 50° C. for 2 minutes, 95° C. for 10 minutes, 40 cycles of 95° C. for 15 seconds, 60° C. for 1 minute. Data was analyzed using 7500 Real-Time PCR System Sequence Detection software v1.3 using the comparative CT relative quantification calculation method. The output was expressed as a fold-change of expression levels. The threshold level was selected to be automatically determined by the software and was set to be above the baseline but sufficiently low to be within the exponential growth region of an amplification curve. The cycle number at which the fluorescence signal associated with a particular amplicon accumulation crosses the threshold is referred to as the CT.
The effect of 1,3-dioxo-2-(2,6-dioxopiperidin-3-yl)-4-aminoisoindoline or 1-oxo-2-(2,6-dioxopiperidin-3-yl)-4-aminoisoindoline, either alone or in combination with Dexamethasone (10 nM) on the expression of several important genes involved in the regulation of NHL cell proliferation and survival was determined using Rec-1 cells (FIG. 1). The immunomodulatory compounds 1,3-dioxo-2-(2,6-dioxopiperidin-3-yl)-4-aminoisoindoline or 1-oxo-2-(2,6-dioxopiperidin-3-yl)-4-aminoisoindoline were added to the Rec-1 cells at a final concentration of 1, 10, or 100 μM. After 24 or 48 hours of incubation with 1,3-dioxo-2-(2,6-dioxopiperidin-3-yl)-4-aminoisoindoline or 1-oxo-2-(2,6-dioxopiperidin-3-yl)-4-aminoisoindoline, gene expression of VEGF, p21, p53, and cyclin D1 was measured using real-time PCR.

Jeko-1 cells [2] = assay: Real-time RT-PCR mRNA levels in Jeko-1 cells; settings: 24 hours
Procedure: as §1, §2
Jeko-1 cells were treated with immunomodulatory compounds, with or without dexamethasone (10 nM) for 24 hours. Total RNA was then isolated from the treated cells, and the samples were subjected to real-time RT-PCR analysis to determine gene transcription at the mRNA level. […] 1,3-dioxo-2-(2,6-dioxopiperidin-3-yl)-4-aminoisoindoline (at 10 μM) enhanced mRNA levels of these genes up to about 3-fold. 1-oxo-2-(2,6-dioxopiperidin-3-yl)-4-aminoisoindoline (1 μM) enhanced activin A mRNA level up to 2.6-fold, and SPARC was enhanced at 10 μM.

sensitive NHL cells = assay: Luminex assay for VEGF production, sensitive NHL cells
Procedure: (§3) Cells were treated with the drug for 3 days in 96 well plates. Cell culture supernatants were then collected for measurement of VEGF using Luminex/xMAP® technology.
(§4) 1-oxo-2-(2,6-dioxopiperidin-3-yl)-4-aminoisoindoline inhibited the production of the pro-angiogenic growth factor VEGF from anti-proliferation sensitive NHL cells, such as Namalwa, Jeko-1 and Rec-1 cells.

Rec-1 cells [3] = assay: Luminex assay for VEGF production, Rec-1; settings: 3 days
Procedure: as §3, §4

Namalwa cells [4] = assay: Real-time RT-PCR gene expression in Namalwa cells
Procedure: as §1, §2
The effect of the administration of 1-oxo-2-(2,6-dioxopiperidin-3-yl)-4-aminoisoindoline in Namalwa cells after 48 hours of drug treatment was measured.
The effect of administration of 1-oxo-2-(2,6-dioxopiperidin-3-yl)-4-aminoisoindoline at various time points from 0 to 48 hours in the fold change in expression of several genes was measured in Namalwa cells (FIG. 11).

Jeko-1 cells [5] = assay: Luminex assay for VEGF production, Jeko-1; settings: 3 days
Procedure: as §3, §4

Rec-1 cells [6] = assay: Rec-1 cell growth in the presence of rhVEGF or anti-VEGF antibody; settings: Rec-1 cells (FIG. 8)
Procedure: (§5) NHL cell proliferation was assessed by 3H-thymidine incorporation assay. Briefly, cells were cultured in 96 well cell culture plates in complete RPMI-1640 medium in the presence and absence of drugs. Following incubation at 37° C. for 3 days, 1 μCi 3H-thymidine was added to each well for the last 5 hours of incubation. The 3H incorporation of each well was then measured.

DB cells = assay: Luminex assay for VEGF production, DB; settings: 3 days
Procedure: as §3, §4

Granta-519 cells = assay: Luminex assay for VEGF production, Granta-519; settings: 3 days
Procedure: as §3, §4

NHL cells = assay: Real-time RT-PCR gene expression in NHL cell lines
Procedure: as §1, §2
The effect of the administration of 1-oxo-2-(2,6-dioxopiperidin-3-yl)-4-aminoisoindoline in various NHL cells was measured after 24 hours of incubation, using real-time RT-PCR (FIG. 9).

DB cell line = assay: NHL cell proliferation, 3H-thymidine incorporation, DB cells; settings: DB (t(14;18)) cells
Procedure: as §5
(§6) To better understand how the effectiveness of immunomodulatory compound administration varies among different cancer cell types, the immunomodulatory compound 1-oxo-2-(2,6-dioxopiperidin-3-yl)-4-aminoisoindoline was tested in vitro for its anti-proliferative effect in several NHL cell lines after 1-3 days of treatment. The method utilized ^3H-thymidine incorporation, microbead array technology and real time PCR. The six tested cell lines were Namalwa, Jeko-1, Rec-1, Granta-519, DB, and JVM-2.

Namalwa cells [7] = assay: Proliferation of Namalwa cells after SPARC siRNA knockdown; settings: SPARC siRNA 200 nM, drug for 2 days
Procedure: as §5
Cells were transfected with SPARC or cyclophilin siGENME SMARTpool (Dharmacon, Lafayette, Colo.) at final concentration of 200 nM using DharmaFECT 2 transfection reagents following the manufacturer's protocol. After 24 hours of transfection, cells were then treated with the drug for 2 days.
SPARC siRNA was transfected to Namalwa cells to determine the effect of a SPARC knockdown on the antiproliferative effect of 1-oxo-2-(2,6-dioxopiperidin-3-yl)-4-aminoisoindoline in Namalwa cells. The anti-proliferative effect of 1-oxo-2-(2,6-dioxopiperidin-3-yl)-4-aminoisoindoline is weaker after SPARC knockdown compared to mock transfected control cells.

[8] = tested on: NHL cell lines (Namalwa, Jeko-1, Rec-1, Granta-519, DB, JVM-2); assay: NHL cell proliferation, 3H-thymidine incorporation
Procedure: as §5, §6

Namalwa cells [9] = assay: Luminex assay for VEGF production, Namalwa; settings: 3 days
Procedure: as §3, §4

[10] = Namalwa cells, 10 μM, 2-48 hours

Nc1cccc2c1C(=O)N(C1CCC(=O)NC1=O)C2=O (centres unmarked) [1,3-dioxo-2-(2,6-dioxopiperidin-3-yl)-4-aminoisoindoline]
VEGF mRNA level (Rec-1 cells [1]): decrease
p21 mRNA level (Rec-1 cells [1]): increase
enhancement of mRNA levels of p21, activin A and SPARC (Jeko-1 cells [2]; 10 μM): about 3 fold
SPARC mRNA level (Jeko-1 cells [2]; 1-10 μM): up-regulate
activin A mRNA level (Jeko-1 cells [2]; 1-10 μM): up-regulate
p21 mRNA level (Jeko-1 cells [2]; 1-10 μM): up-regulate
effect on p21 (Jeko-1 cells [2]): clear enhancing effect

Nc1cccc2c1CN(C1CCC(=O)NC1=O)C2=O (centres unmarked) [1-oxo-2-(2,6-dioxopiperidin-3-yl)-4-aminoisoindoline]
concentrations for the effect on VEGF compared with anti-proliferative effects (sensitive NHL cells): well below levels required for anti-proliferative effects
production of the proangiogenic growth factor VEGF (sensitive NHL cells; FIG. 7): inhibits
production of VEGF (Rec-1 cells [3]): inhibited
change in expression of BlyS (Namalwa cells [4]; [10]): did not exhibit a significant change
change in expression of VEGF (Namalwa cells [4]; [10]): did not exhibit a significant change
change in expression of cyclin D1 (Namalwa cells [4]; [10]): did not exhibit a significant change
change in expression of p53/p73 (Namalwa cells [4]; [10]): did not exhibit a significant change
VEGF mRNA level (Rec-1 cells [1]): decrease
p21 mRNA level (Rec-1 cells [1]): increase
production of VEGF (Jeko-1 cells [5]): inhibited
anti-proliferative activity on addition of exogenous recombinant human VEGF (in excess) or neutralizing VEGF antibody (Rec-1 cells [6]): does not affect
production of VEGF (DB cells): fails to inhibit
production of VEGF (Granta-519 cells): fails to inhibit
VEGF mRNA expression (NHL cells; NHL cells): does not inhibit
p21 in sensitive and resistant (DB) cells (NHL cells; both sensitive and resistant (DB) cells): elevated p21 was observed
elevation of SPARC mRNA in resistant cells (NHL cells; resistant cells): not seen
SPARC expression (NHL cells; sensitive NHL cells, 24 hours): increased
p21cip/kip expression (NHL cells; sensitive NHL cells, 24 hours): increased
SPARC mRNA expression (NHL cells; several NHL cell lines): increased expression of SPARC mRNA
p21cip/kip expression (NHL cells; several cell lines): increased
enhancement of activin A mRNA level (Jeko-1 cells [2]; 1 μM): up to 2.6 fold
SPARC mRNA level (Jeko-1 cells [2]; 10 μM): enhanced
cell proliferation of DB cell line (DB cell line): increased rate of cell proliferation
anti-proliferative effect after SPARC knockdown compared to mock transfected control cells (Namalwa cells [7]): weaker
anti-proliferative activity against NHL cells ([8]; 1-3 days of treatment): demonstrated anti-proliferative activity
order of sensitivity of NHL cell lines to the compound ([8]; 3 day incubation): Namalwa>Rec-1>Jeko-1>Granta-519>JVM-2>DB
production of VEGF (Namalwa cells [9]): inhibited

C[C@@H]1C[C@H]2[C@@H]3CCC4=CC(=O)C=C[C@]4(C)[C@@]3(F)[C@@H](O)C[C@]2(C)[C@@]1(O)C(=O)CO [dexamethasone]
SPARC expression (Namalwa cells [4]; dexamethasone alone, NHL cells such as Namalwa): no effect
